Measured values taken from patent US12018016B2, “Aryl sulfonyl (hydroxy) piperidines as CCR6 inhibitors” (CHEMOCENTRYX, INC., priority 2021, dated 2024).
pIC50: −log10 of the molar value.

Biological target: T1, human CCR6 (Homo sapiens, UniProt P51684)
T1 construct: expressed in transfected cells; host or cells: Ba/F3 cells (mouse pro-B line)
T1 sequence (P51684 1-374): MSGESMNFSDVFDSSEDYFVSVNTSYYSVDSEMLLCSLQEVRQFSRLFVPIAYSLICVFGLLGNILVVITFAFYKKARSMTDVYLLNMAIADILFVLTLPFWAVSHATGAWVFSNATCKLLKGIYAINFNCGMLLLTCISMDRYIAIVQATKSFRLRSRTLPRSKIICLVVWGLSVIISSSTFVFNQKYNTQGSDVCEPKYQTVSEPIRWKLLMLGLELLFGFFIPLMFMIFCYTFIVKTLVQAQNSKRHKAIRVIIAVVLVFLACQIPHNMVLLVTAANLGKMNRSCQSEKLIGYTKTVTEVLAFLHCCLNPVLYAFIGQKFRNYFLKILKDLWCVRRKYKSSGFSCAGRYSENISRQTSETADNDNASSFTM
Assay: Migration assay (chemotaxis, ChemoTX)
Assay type: cell-based
Details: hCCR6-transfected Ba/F3 cells in human serum, migration to recombinant human CCL20 10 nM, 37° C. 45 minutes; read-out: Potency (IC50 value in the migration assay)
Excerpt: A chemotaxis assay can be used to determine the efficacy of potential receptor antagonists at blocking the migration mediated through chemokine receptors, such as CCR6. This assay is routinely performed using the ChemoTX® microchamber system with a 5-μm pore-sized polycarbonate membrane. Chemokine receptor-expressing cells are required for such an assay. In this case, Ba/F3 cells (Palacios et al., Nature, 309:126, 1984) transfected with the gene for human CCR6 under control of the CMV promotor were used. To begin such an assay, hCCR6-transfected Ba/F3 cells are first grown for 24 hr in medium supplemented with sodium butyrate, which increases CCR6 transcription via the CMV promotor. The prepared Ba/F3 cells, are collected by centrifugation at 400×g at room temperature, then suspended at 4 million/ml in human serum. The compound being tested is serially diluted from a maximum final concentration of 1 μM (or an equivalent volume of its solvent (DMSO)) and is then added to the cell/serum mixture. Separately, recombinant human CCL20 (MIP-3α/LARC) at its EC50 concentration (10 nM) is placed in the lower wells of the ChemoTX® plate. The 5-μm (pore size) polycarbonate membrane is placed onto the plate, and 20 μL of the cell/compound mixture is transferred onto each well of the membrane. The plates are incubated at 37° C. for 45 minutes, after which the polycarbonate membranes are removed and 5 μl of the DNA-intercalating dye CyQUANT (Invitrogen, Carlsbad, CA) is added to the lower wells. The amount of fluorescence, corresponding to the number of migrated cells, is measured using a Spectrafluor Plus plate reader (TECAN, San Jose, CA).

Structure (SMILES)	pIC50
O=C1CNCCN1c1cc(-c2ccc(S(=O)(=O)N3CC[C@@H](Nc4ccc(C(F)(F)F)cn4)[C@@H](O)C3)cc2)ccn1 [Compound 88, 1-(4-(4-(((3S,4R)-3-hydroxy-4-((5-(trifluoromethyl)pyridin-2-yl)amino)piperidin-1-yl)sulfonyl)phenyl)pyridin-2-yl)piperazin-2-one]	8.00 to 9.00
O=S(=O)(c1ccc(-c2ccc(N3CCOCC3)nc2)cc1)N1CC[C@@H](Nc2ccc(C(F)(F)F)cn2)[C@@H](O)C1 [Compound 89, (3S,4R)-1-((4-(6-morpholinopyridin-3-yl)phenyl)sulfonyl)-4-((5-(trifluoromethyl)pyridin-2-yl)amino)piperidin-3-ol]	> 9.00
O=S(=O)(c1ccc(-c2ccnc(N3CCCC3)c2)cc1)N1CC[C@@H](Nc2ccc(C(F)(F)F)cn2)[C@@H](O)C1 [Compound 90, (3S,4R)-1-((4-(2-(pyrrolidin-1-yl)pyridin-4-yl)phenyl)sulfonyl)-4-((5-(trifluoromethyl)pyridin-2-yl)amino)piperidin-3-ol]	> 9.00
CN(C)[C@H]1C[C@H](Nc2ccc(-c3ccc(S(=O)(=O)N4CC[C@@H](Nc5ccc(C(F)(F)F)cn5)[C@@H](O)C4)cc3)cn2)C1 [Compound 91]	8.00 to 9.00
CC(C)(O)C1CN(c2ccc(-c3ccc(S(=O)(=O)N4CC[C@@H](Nc5ccc(C(F)(F)F)cn5)[C@@H](O)C4)cc3)cn2)C1 [Compound 92]	> 9.00
O=S(=O)(c1ccc(-c2ccc(N3CC4(COC4)C3)nc2)cc1)N1CC[C@@H](Nc2ccc(C(F)(F)F)cn2)[C@@H](O)C1 [Compound 93]	> 9.00
N[C@H]1C[C@H](Nc2ccc(-c3ccc(S(=O)(=O)N4CC[C@@H](Nc5ccc(C(F)(F)F)cn5)[C@@H](O)C4)cc3)cn2)C1 [Compound 94]	> 9.00
COC1CN(c2ccc(-c3ccc(S(=O)(=O)N4CC[C@@H](Nc5ccc(C(F)(F)F)cn5)[C@@H](O)C4)cc3)cn2)C1 [Compound 95]	8.00 to 9.00
CN(C)[C@H]1C[C@@H](Nc2ccc(-c3ccc(S(=O)(=O)N4CC[C@@H](Nc5ccc(C(F)(F)F)cn5)[C@@H](O)C4)cc3)cn2)C1 [Compound 96]	> 9.00
N[C@H]1C[C@@H](Nc2ccc(-c3ccc(S(=O)(=O)N4CC[C@@H](Nc5ccc(C(F)(F)F)cn5)[C@@H](O)C4)cc3)cn2)C1 [Compound 97]	> 9.00
CN1CC(N(C)c2ccc(-c3ccc(S(=O)(=O)N4CC[C@@H](Nc5ccc(C(F)(F)F)cn5)[C@@H](O)C4)cc3)cn2)C1 [Compound 98]	8.00 to 9.00
CN1CC2(C1)CN(c1ccc(-c3ccc(S(=O)(=O)N4CC[C@@H](Nc5ccc(C(F)(F)F)cn5)[C@@H](O)C4)cc3)cn1)C2 [Compound 99]	> 9.00
O=S(=O)(c1ccc(-c2ccc(N3CCC3)nc2)cc1)N1CC[C@@H](Nc2ccc(C(F)(F)F)cn2)[C@@H](O)C1 [Compound 100]	> 9.00
CN(C)CCN(C)c1ccc(-c2ccc(S(=O)(=O)N3CC[C@@H](Nc4ccc(C(F)(F)F)cn4)[C@@H](O)C3)cc2)cn1 [Compound 101]	6.00 to 8.00
CN(c1ccc(-c2ccc(S(=O)(=O)N3CC[C@@H](Nc4ccc(C(F)(F)F)cn4)[C@@H](O)C3)cc2)cn1)C1CCC1 [Compound 102]	8.00 to 9.00
O=S(=O)(c1ccc(-c2ccc(NC3CCC3)nc2)cc1)N1CC[C@@H](Nc2ccc(C(F)(F)F)cn2)[C@@H](O)C1 [Compound 103]	8.00 to 9.00
O=S(=O)(c1ccc(-c2ccc(N3CC4(CNC4)C3)nc2)cc1)N1CC[C@@H](Nc2ccc(C(F)(F)F)cn2)[C@@H](O)C1 [Compound 104]	> 9.00
CN(C)C1CCN(c2ccc(-c3ccc(S(=O)(=O)N4CC[C@@H](Nc5ccc(C(F)(F)F)cn5)[C@@H](O)C4)cc3)cn2)CC1 [Compound 105]	8.00 to 9.00
NC1CCN(c2ccc(-c3ccc(S(=O)(=O)N4CC[C@@H](Nc5ccc(C(F)(F)F)cn5)[C@@H](O)C4)cc3)cn2)CC1 [Compound 106]	> 9.00
CN(C)C1CN(c2ccc(-c3ccc(S(=O)(=O)N4CC[C@@H](Nc5ccc(C(F)(F)F)cn5)[C@@H](O)C4)cc3)cn2)C1 [Compound 107]	8.00 to 9.00
CN1CCN(c2cncc(-c3ccc(S(=O)(=O)N4CC[C@@H](Nc5ccc(C(F)(F)F)cn5)[C@@H](O)C4)cc3)c2)CC1 [Compound 108]	> 9.00
O=S(=O)(c1ccc(-c2ccc(N3CCCCC3)nc2)cc1)N1CC[C@@H](Nc2ccc(C(F)(F)F)cn2)[C@@H](O)C1 [Compound 109]	8.00 to 9.00
Nc1cncc(-c2ccc(S(=O)(=O)N3CC[C@@H](Nc4ccc(C(F)(F)F)cn4)[C@@H](O)C3)cc2)c1 [Compound 110]	> 9.00

Structure (SMILES)	pIC50
CN(C)c1cncc(-c2ccc(S(=O)(=O)N3CC[C@@H](Nc4ccc(C(F)(F)F)cn4)[C@@H](O)C3)cc2)c1 [Compound 111]	> 9.00
CN(C)c1ccc(-c2ccc(S(=O)(=O)N3CC[C@@H](Nc4ccc(C(F)(F)F)cn4)[C@@H](O)C3)cc2)cn1 [Compound 112]	> 9.00
CN1CCN(c2cc(-c3ccc(S(=O)(=O)N4CC[C@@H](Nc5ccc(C(F)(F)F)cn5)[C@@H](O)C4)cc3)ccn2)CC1 [Compound 113]	6.00 to 8.00
O=S(=O)(c1ccc(-c2ccc(N3CCNCC3)nc2)cc1)N1CC[C@@H](Nc2ccc(C(F)(F)F)cn2)[C@@H](O)C1 [Compound 114]	8.00 to 9.00
CN1CCN(c2ccc(-c3ccc(S(=O)(=O)N4CC[C@@H](Nc5ccc(C(F)(F)F)cn5)[C@@H](O)C4)cc3)cn2)CC1 [Compound 115]	> 9.00
Cc1ccnc(C)c1-c1ccc(S(=O)(=O)N2CC[C@@H](Nc3ccc(C(F)(F)F)cn3)[C@@H](O)C2)cc1 [Compound 116]	> 9.00
NC(=O)c1cccc(-c2ccc(S(=O)(=O)N3CC[C@@H](Nc4ccc(C(F)(F)F)cn4)[C@@H](O)C3)cc2)c1 [Compound 117]	> 9.00
COc1c(-c2ccc(S(=O)(=O)N3CC[C@@H](Nc4ccc(C(F)(F)F)cn4)[C@@H](O)C3)cc2)cnc2[nH]cc(C#N)c12 [Compound 118]	> 9.00
O=S(=O)(c1ccc(-c2cnc3[nH]ccc3c2F)cc1)N1CC[C@@H](Nc2ccc(C(F)(F)F)cn2)[C@@H](O)C1 [Compound 119]	> 9.00
O=S(=O)(c1ccc(-c2cc(F)c3[nH]ncc3c2)cc1)N1CC[C@@H](Nc2ccc(C(F)(F)F)cn2)[C@@H](O)C1 [Compound 120]	> 9.00
Cc1cc(-c2ccc(S(=O)(=O)N3CC[C@@H](Nc4ccc(C(F)(F)F)cn4)[C@@H](O)C3)cc2)cc2c(C#N)nn(C)c12 [Compound 121]	> 9.00
COc1cc(-c2ccc(S(=O)(=O)N3CC[C@@H](Nc4ccc(C(F)(F)F)cn4)[C@@H](O)C3)cc2)cc2c(C#N)n[nH]c12 [Compound 122]	> 9.00
Cc1cc(-c2ccc(S(=O)(=O)N3CC[C@@H](Nc4ccc(C(F)(F)F)cn4)[C@@H](O)C3)cc2)cc2cnn(C)c12 [Compound 123]	> 9.00
CN(C)c1cc(-c2ccc(S(=O)(=O)N3CC[C@@H](Nc4ccc(C(F)(F)F)cn4)[C@@H](O)C3)cc2)ccn1 [Compound 124]	8.00 to 9.00
CNc1cc(-c2ccc(S(=O)(=O)N3CC[C@@H](Nc4ccc(C(F)(F)F)cn4)[C@@H](O)C3)cc2)ccn1 [Compound 125]	8.00 to 9.00
Nc1cc(-c2ccc(S(=O)(=O)N3CC[C@@H](Nc4ccc(C(F)(F)F)cn4)[C@@H](O)C3)cc2)ccn1 [Compound 126]	8.00 to 9.00
O=C1C[C@H](Nc2cc(-c3ccc(S(=O)(=O)N4CC[C@@H](Nc5ccc(C(F)(F)F)cn5)[C@@H](O)C4)cc3)ccn2)CN1 [Compound 127]	8.00 to 9.00
N[C@H]1C[C@H](Nc2cc(-c3ccc(S(=O)(=O)N4CC[C@@H](Nc5ccc(C(F)(F)F)cn5)[C@@H](O)C4)cc3)ccn2)C1 [Compound 128]	> 9.00
N[C@H]1C[C@@H](Nc2cc(-c3ccc(S(=O)(=O)N4CC[C@@H](Nc5ccc(C(F)(F)F)cn5)[C@@H](O)C4)cc3)ccn2)C1 [Compound 129]	> 9.00
CN(c1cc(-c2ccc(S(=O)(=O)N3CC[C@@H](Nc4ccc(C(F)(F)F)cn4)[C@@H](O)C3)cc2)ccn1)C1CCC1 [Compound 130]	> 9.00
O=S(=O)(c1ccc(-c2ccnc(N3CCC(O)CC3)c2)cc1)N1CC[C@@H](Nc2ccc(C(F)(F)F)cn2)[C@@H](O)C1 [Compound 131]	> 9.00
CC(C)(O)C1CN(c2cc(-c3ccc(S(=O)(=O)N4CC[C@@H](Nc5ccc(C(F)(F)F)cn5)[C@@H](O)C4)cc3)ccn2)C1 [Compound 132]	> 9.00
O=S(=O)(c1ccc(-c2ccnc(N3CC[C@H](O)C3)c2)cc1)N1CC[C@@H](Nc2ccc(C(F)(F)F)cn2)[C@@H](O)C1 [Compound 133]	> 9.00
